The record followed here is patent US6908935B2, “Calcium receptor modulating agents” (Amgen Inc., priority 2002, dated 2005).

The assay has as its target T1, human parathyroid cell Ca^2+ receptor (hPCaR) (Homo sapiens, UniProt P41180).
T1 construct: expressed in transfected cells
T1 sequence (P41180 20-1078): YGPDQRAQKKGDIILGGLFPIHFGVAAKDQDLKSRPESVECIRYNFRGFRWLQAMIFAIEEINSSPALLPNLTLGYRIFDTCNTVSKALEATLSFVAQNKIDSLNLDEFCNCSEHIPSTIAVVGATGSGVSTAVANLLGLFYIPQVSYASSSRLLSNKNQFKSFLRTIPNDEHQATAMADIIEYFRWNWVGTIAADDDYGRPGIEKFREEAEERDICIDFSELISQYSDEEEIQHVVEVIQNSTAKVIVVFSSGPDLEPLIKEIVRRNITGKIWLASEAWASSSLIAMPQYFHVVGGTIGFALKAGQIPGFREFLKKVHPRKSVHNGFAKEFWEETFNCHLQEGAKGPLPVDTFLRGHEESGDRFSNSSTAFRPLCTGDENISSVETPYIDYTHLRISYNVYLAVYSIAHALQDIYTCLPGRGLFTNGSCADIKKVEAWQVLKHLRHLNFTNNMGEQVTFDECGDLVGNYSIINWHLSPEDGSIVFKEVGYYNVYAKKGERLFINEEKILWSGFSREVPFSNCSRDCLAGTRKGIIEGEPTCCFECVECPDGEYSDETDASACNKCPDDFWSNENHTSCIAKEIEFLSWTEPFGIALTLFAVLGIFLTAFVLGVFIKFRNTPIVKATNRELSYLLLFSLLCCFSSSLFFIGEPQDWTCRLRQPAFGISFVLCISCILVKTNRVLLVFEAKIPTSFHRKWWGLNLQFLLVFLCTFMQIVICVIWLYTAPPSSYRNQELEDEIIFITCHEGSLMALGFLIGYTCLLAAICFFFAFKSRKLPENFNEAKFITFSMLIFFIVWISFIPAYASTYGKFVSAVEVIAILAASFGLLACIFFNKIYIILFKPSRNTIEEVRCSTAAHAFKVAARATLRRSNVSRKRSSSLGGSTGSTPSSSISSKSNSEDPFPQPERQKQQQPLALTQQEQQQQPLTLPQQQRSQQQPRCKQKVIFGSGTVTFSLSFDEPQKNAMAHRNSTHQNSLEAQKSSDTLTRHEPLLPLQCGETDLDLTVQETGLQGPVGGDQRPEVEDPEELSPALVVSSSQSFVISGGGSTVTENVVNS
Put plainly: [Ca2+]i measurement with fluo-3 in HEK 293 4.0-7 cells stably transfected with hPCaR. Format: cell-based. As to conditions: fluo-3 fluorescence (485/530 nm), effect on [Ca^2+]i. A digest of the protocol: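 Cytosolic [Ca2+] was read as fluo-3 fluorescence (ex 485/em 530 nm) after compound addition to washed cells. Cells were hPCaR-transfected HEK 293 clone 7, dye-loaded 30 min at 37 °C with 2 μM fluo-3 acetoxymethyl ester in HEPES-buffered saline pH 7.45 containing 1 mM CaCl2 and 0.5% BSA.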
As for `COc1ccc(CN[C@H](C)c2cccc3ccccc23)cc1-c1nnc(C(F)(F)F)o1` [(1R)-N-((4-(methyloxy)-3-(5-(trifluoromethyl)-1,3,4-oxadiazol-2-yl)phenyl)methyl)-1-(1-naphthalenyl)ethanamine], the EC50 is ≤ 10 µM.
In the case of `COc1ccc(CN[C@H](C)c2ccccc2)cc1-c1nnc(C(F)(F)F)o1` [(1R)-N-((4-(methyloxy)-3-(5-(trifluoromethyl)-1,3,4-oxadiazol-2-yl)phenyl)methyl)-1-phenylethanamine], the EC50 was ≤ 10 µM.
Then `COc1ccc(CN[C@H](C)c2ccc(C)cc2)cc1-c1cncnc1` [(1R)-N-((4-(methyloxy)-3-(5-pyrimidinyl)phenyl)methyl)-1-(4-methylphenyl)ethanamine], with ≤ 10 µM.
Then `COc1ccc(CN[C@H](C)c2ccccc2)cc1-c1cncnc1` [(1R)-N-((4-(methyloxy)-3-(5-pyrimidinyl)phenyl)methyl)-1-phenylethanamine], with ≤ 10 µM.
Consider `COc1ccc(CN[C@H](C)c2cccc3ccccc23)cc1-c1ccc(OCC(F)(F)F)nc1` [(1R)-N-((4-(methyloxy)-3-(6-((2,2,2-trifluoroethyl)oxy)-3-pyridinyl)phenyl)methyl)-1-(1-naphthalenyl)ethanamine], for which the EC50 is ≤ 10 µM.
Consider `COc1ccc(CN[C@H](C)c2ccccc2)cc1-c1ccc(OCC(F)(F)F)nc1` [(1R)-N-((4-(methyloxy)-3-(6-((2,2,2-trifluoroethyl)oxy)-3-pyridinyl)phenyl)methyl)-1-phenylethanamine], for which the EC50 was ≤ 10 µM.
Take `COc1ccc(CN[C@H](C)c2cccc3ccccc23)cc1-c1ccc(OCCN2CCCC2)nc1` [(1R)-N-((4-(methyloxy)-3-(6-((2-(1-pyrrolidinyl)ethyl)oxy)-3-pyridinyl)phenyl)methyl)-1-(1-naphthalenyl)ethanamine]: the EC50 is ≤ 10 µM.
As for `COc1ccc(CN[C@H](C)c2ccccc2)cc1-c1ccc(OCCN2CCCC2)nc1` [(1R)-N-((4-(methyloxy)-3-(6-((2-(1-pyrrolidinyl)ethyl)oxy)-3-pyridinyl)phenyl)methyl)-1-phenylethanamine], the EC50 is ≤ 10 µM.
Turning to `COCCOc1ccc(-c2cc(CN[C@H](C)c3ccccc3)ccc2OC)cn1` [(1R)-N-((4-(methyloxy)-3-(6-((2-(methyloxy)ethyl)oxy)-3-pyridinyl)phenyl)methyl)-1-phenylethanamine], the EC50 was ≤ 10 µM.
Turning to `COc1ccc(CN[C@H](C)c2ccccc2)cc1-c1ccc(OCC2CCCO2)nc1` (stereo partly drawn) [(1R)-N-((4-(methyloxy)-3-(6-((tetrahydro-2-furanylmethyl)oxy)-3-pyridinyl)phenyl)methyl)-1-phenylethanamine], the EC50 was ≤ 10 µM.
On to `COc1ccc(-c2cc(CN[C@H](C)c3ccc4ccccc4c3)ccc2OC)nn1` [(1R)-N-((4-(methyloxy)-3-(6-(methyloxy)-3-pyridazinyl)phenyl)methyl)-1-(2-naphthalenyl)ethanamine], for which the EC50 was ≤ 10 µM.
Then `COc1cccc([C@@H](C)NCc2ccc(OC)c(-c3ccc(OC)nn3)c2)c1` [(1R)-N-((4-(methyloxy)-3-(6-(methyloxy)-3-pyridazinyl)phenyl)methyl)-1-(3-(methyloxy)phenyl)ethanamine], with ≤ 10 µM.
Then `COc1ccc([C@@H](C)NCc2ccc(OC)c(-c3ccc(OC)nn3)c2)cc1` [(1R)-N-((4-(methyloxy)-3-(6-(methyloxy)-3-pyridazinyl)phenyl)methyl)-1-(4-(methyloxy)phenyl)ethanamine], with ≤ 10 µM; and `COc1ccc(-c2cc(CN[C@H](C)c3ccccc3)ccc2OC)nn1` [(1R)-N-((4-(methyloxy)-3-(6-(methyloxy)-3-pyridazinyl)phenyl)methyl)-1-phenylethanamine], with ≤ 10 µM; and `COc1ccc(-c2cc(CN[C@H](C)c3cccc4ccccc34)ccc2OC)cn1` [(1R)-N-((4-(methyloxy)-3-(6-(methyloxy)-3-pyridinyl)phenyl)methyl)-1-(1-naphthalenyl)ethanamine], with ≤ 10 µM.
Then `COc1cccc([C@@H](C)NCc2ccc(OC)c(-c3ccc(OC)nc3)c2)c1` [(1R)-N-((4-(methyloxy)-3-(6-(methyloxy)-3-pyridinyl)phenyl)methyl)-1-(3-(methyloxy)phenyl)ethanamine], with ≤ 10 µM; and `COc1ccc(CN[C@H](C)c2ccccc2)cc1-c1ccc(C(F)(F)F)nc1` [(1R)-N-((4-(methyloxy)-3-(6-(trifluoromethyl)-3-pyridinyl)phenyl)methyl)-1-phenylethanamine], with ≤ 10 µM; and `COc1ccc(CN[C@H](C)c2cccc3ccccc23)cc1-c1ccc(C)nc1` [(1R)-N-((4-(methyloxy)-3-(6-methyl-3-pyridinyl)phenyl)methyl)-1-(1-naphthalenyl)ethanamine], with ≤ 10 µM.
Consider `COc1ccc(CN[C@H](C)c2cccc3ccccc23)cc1-c1ccc2ncccc2c1` [(1R)-N-((4-(methyloxy)-3-(6-quinolinyl)phenyl)methyl)-1-(1-naphthalenyl)ethanamine], for which the EC50 was ≤ 10 µM.
Then `COc1ccc(CN[C@H](C)c2ccccc2)cc1-c1ccc2ncccc2c1` [(1R)-N-((4-(methyloxy)-3-(6-quinolinyl)phenyl)methyl)-1-phenylethanamine], with ≤ 10 µM.
Then `COc1ccc(CN[C@H](C)c2cccc3ccccc23)cc1-c1ccc2nccnc2c1` [(1R)-N-((4-(methyloxy)-3-(6-quinoxalinyl)phenyl)methyl)-1-(1-naphthalenyl)ethanamine], with ≤ 10 µM.
Then `COc1ccc(CN[C@H](C)c2ccccc2)cc1-c1ccc2nccnc2c1` [(1R)-N-((4-(methyloxy)-3-(6-quinoxalinyl)phenyl)methyl)-1-phenylethanamine], with ≤ 10 µM; and `COc1cccc([C@@H](C)NCc2ccc(Cl)c(-c3cccnc3)c2)c1` [(1R)-N-((4-chloro-3-(3-pyridinyl)phenyl)methyl)-1-(3-(methyloxy)phenyl)ethanamine], with ≤ 10 µM.
Take `C[C@@H](NCc1ccc(Cl)c(-c2ccc(OCC(F)(F)F)nc2)c1)c1cccc2ccccc12` [(1R)-N-((4-chloro-3-(6-((2,2,2-trifluoroethyl)oxy)-3-pyridinyl)phenyl)methyl)-1-(1-naphthalenyl)ethanamine]: the EC50 is ≤ 10 µM.
As to `C[C@@H](NCc1ccc(C(F)(F)F)c(-c2ccc(C(F)(F)F)cc2)c1)c1cccc2ccccc12` [(1R)-N-((4′,6-bis(trifluoromethyl)-1,1′-biphenyl-3-yl)methyl)-1-(1-naphthalenyl)ethanamine], the EC50 was ≤ 10 µM.
Then `COc1cccc([C@@H](C)NCc2ccc(C(F)(F)F)c(-c3ccc(C(F)(F)F)cc3)c2)c1` [(1R)-N-((4′,6-bis(trifluoromethyl)-1,1′-biphenyl-3-yl)methyl)-1-(3-(methyloxy)phenyl)ethanamine], with ≤ 10 µM; and `COc1cccc([C@@H](C)NCc2ccc(F)c(-c3ccc(F)cc3)c2)c1` [(1R)-N-((4′,6-difluoro-1,1′-biphenyl-3-yl)methyl)-1-(3-(methyloxy)phenyl)ethanamine], with ≤ 10 µM.
On to `COc1ccc([C@@H](C)NCc2ccc(F)c(-c3ccc(F)cc3)c2)cc1` [(1R)-N-((4′,6-difluoro-1,1′-biphenyl-3-yl)methyl)-1-(4-(methyloxy)phenyl)ethanamine], for which the 50% effective concentration (EC50) is ≤ 10 µM.
Then `COc1ccc(-c2cccc(CN[C@H](C)c3cccc4ccccc34)c2)cc1` [(1R)-N-((4′-(methyloxy)-1,1′-biphenyl-3-yl)methyl)-1-(1-naphthalenyl)ethanamine], with ≤ 10 µM; and `COc1ccc(-c2cccc(CN[C@H](C)c3ccc4ccccc4c3)c2)cc1` [(1R)-N-((4′-(methyloxy)-1,1′-biphenyl-3-yl)methyl)-1-(2-naphthalenyl)ethanamine], with ≤ 10 µM; and `COc1ccc(-c2cccc(CN[C@H](C)c3cccc(OC)c3)c2)cc1` [(1R)-N-((4′-(methyloxy)-1,1′-biphenyl-3-yl)methyl)-1-(3-(methyloxy)phenyl)ethanamine], with ≤ 10 µM.
Then `COc1ccc(-c2cccc(CN[C@H](C)c3ccc(OC)cc3)c2)cc1` [(1R)-N-((4′-(methyloxy)-1,1′-biphenyl-3-yl)methyl)-1-(4-(methyloxy)phenyl)ethanamine], with ≤ 10 µM.

What is called EC50 is the concentration that produces a half-maximal response.
